Where two headings read alike, the source gives them in different places.
Tests used:
CYP2B6 = target: T1, CYP2B6 (Homo sapiens, UniProt P20813); assay: HLM-LC-MS CYP450 inhibition assay, CYP2B6; assay type: in vitro ADME; details: substrate bupropion 70 μM, hydroxylation, read-out: Compound IC50
T1 construct: from tissue; host or cells: human liver microsomes
T1 sequence (P20813 1-491): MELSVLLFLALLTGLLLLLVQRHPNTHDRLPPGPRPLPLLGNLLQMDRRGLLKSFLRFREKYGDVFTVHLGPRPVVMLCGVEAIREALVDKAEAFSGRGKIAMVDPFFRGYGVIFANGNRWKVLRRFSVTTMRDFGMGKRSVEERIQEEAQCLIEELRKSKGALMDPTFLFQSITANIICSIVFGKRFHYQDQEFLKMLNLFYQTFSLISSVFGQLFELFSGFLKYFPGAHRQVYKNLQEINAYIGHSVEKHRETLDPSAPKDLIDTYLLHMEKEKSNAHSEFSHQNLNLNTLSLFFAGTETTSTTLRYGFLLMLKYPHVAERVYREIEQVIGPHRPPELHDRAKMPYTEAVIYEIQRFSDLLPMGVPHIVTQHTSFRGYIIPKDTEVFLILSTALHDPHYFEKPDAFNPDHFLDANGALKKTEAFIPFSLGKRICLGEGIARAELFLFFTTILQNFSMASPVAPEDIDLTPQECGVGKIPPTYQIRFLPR
Protocol: (§1) Compounds were tested in triplicate.

[1] = Plasma pharmacokinetics after single I.P./I.V. dose in male Sprague-Dawley rats (LC-MS/MS); details: for MRTIV / clearance / k el: SD rats; for clearance / k el / half-life: male, Sprague-Dawley, rat, plasma, iv, 1 mg/kg; for clearance: CL; for k el: Kel; for half-life: t1/2, SD rats
in vivo = details: male, Sprague-Dawley, rat, iv; for AUC(0-inf): AUC0-inf; for AUC(0-t): AUC0-t
[2] = Plasma pharmacokinetics after single I.P./I.V. dose in male BALB/c mice (LC-MS/MS); details: for AUC(0-inf): AUC0-inf; for AUC(0-t): AUC0-t; for Vd: VdSS; for clearance: CL; for k el: Kel
Protocol: After dosing, blood samples were collected at different time points for each group. […] Three animals were used for each time point. Approximately 800 μL of blood was collected via orbital vein (a source of collecting sufficient volume of venous blood) from each anesthetized mouse by isoflurane, and 200 μL of blood was collected from the cannula implanted in the jugular vein. The catheter was implanted when the blood sample was collected at the first time point. Next, the blood was transferred to a prepared tube containing sodium heparin anticoagulant and mixed briefly by gentle inversion three to four times. The target and actual time of blood sampling were recorded relative to the time of dosing. Samples were placed on wet ice immediately after collection. Within 1 hour after collection, plasma was separated by centrifugation at 4,000 rpm for 10 minutes at 4 °C. The plasma was protected from light and stored at −80 °C until analyzed by liquid chromatography-mass spectrometry/mass spectrometry (LC-MS/MS) for quantification.
Using the data from the standards, calibration curves were generated for each analytical batch. Aliquots of 10.0 μL of samples, calibraton curve samples, and QC samples were supplemented with 100 μL of precipitant (a mixture of acetone and acetonitrile (30:70)). After vortexing for 3 min and centrifuging at 12,000 rpm for 3 min, 75.00 μL of the supernatant was transferred into a 96-well microplate with an equal volume of water. The 10 μL mixture solution was injected for LC-MS/MS analysis.
Data collection was performed using Analyst version 1.4 from Applied Biosystems. […] The data were also analyzed using Prism 5.0 software. Statistical significance was determined using independent two-tailed Student t-tests and one-way ANOVA for independent data. Differences of P < 0.05 were regarded as significant for all statistical analyses.

[3] = male, Sprague-Dawley, rat, in vivo, iv
CYP2C19 = target: T2, CYP2C19 (Homo sapiens, UniProt P33261); assay: HLM-LC-MS CYP450 inhibition assay, CYP2C19; assay type: in vitro ADME; details: substrate S-mephenytoin 35 μM, 4-hydroxylation, read-out: Compound IC50
T2 construct: from tissue; host or cells: human liver microsomes
Protocol: as §1

[4] = doxorubicin I.V. 1.00 mg/kg alone
[5] = doxorubicin I.V. 1.00 mg/kg combined with NSC23925b 2.50 mg/kg
[6] = male, BALB/c, mouse, in vivo, iv, 2 mg/kg
[7] = male, BALB/c, mouse, plasma, iv, 2 mg/kg, BALB/c mice, doxorubicin I.V. 2.00 mg/kg alone
[8] = male, BALB/c, mouse, plasma, iv, 2 mg/kg, BALB/c mice, doxorubicin I.V. 2.00 mg/kg combined with NSC23925b 2.50 mg/kg
[9] = male, BALB/c, mouse, in vivo, iv, 5 mg/kg

T2 sequence (P33261 whole entry): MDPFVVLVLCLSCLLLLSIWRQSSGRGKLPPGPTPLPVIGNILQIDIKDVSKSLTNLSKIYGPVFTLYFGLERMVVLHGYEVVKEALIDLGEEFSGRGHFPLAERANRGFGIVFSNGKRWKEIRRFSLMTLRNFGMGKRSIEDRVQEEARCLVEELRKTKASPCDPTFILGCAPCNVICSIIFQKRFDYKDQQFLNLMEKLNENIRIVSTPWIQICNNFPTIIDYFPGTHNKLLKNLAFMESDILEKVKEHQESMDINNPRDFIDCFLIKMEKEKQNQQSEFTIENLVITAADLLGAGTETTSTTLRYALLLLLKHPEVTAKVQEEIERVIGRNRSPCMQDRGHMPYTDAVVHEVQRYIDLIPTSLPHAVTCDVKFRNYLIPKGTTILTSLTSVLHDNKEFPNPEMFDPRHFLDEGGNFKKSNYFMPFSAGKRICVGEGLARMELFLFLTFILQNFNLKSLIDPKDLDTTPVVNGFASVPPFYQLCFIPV

SMILES: COC(=O)[C@H](c1ccccc1Cl)N1CCc2sccc2C1 [Clopidogrel, reference compound]
- IC50 (CYP2B6): 914 nM

SMILES: COc1cccc2c1C(=O)c1c(O)c3c(c(O)c1C2=O)C[C@@](O)(C(=O)CO)C[C@@H]3O[C@H]1C[C@H](N)[C@H](O)[C@H](C)O1 [Doxorubicin, reference compound]
- MRTIV [1, 4]: 11.1 ± 2.41 h
- MRTIV [1, 5]: 16.1 ± 0.771 h
- clearance [1, 4]: 151 ± 43.1 mL/min/kg
- clearance [1, 5]: 120 ± 7.57 mL/min/kg
- k el [1, 4]: 1.93e-05 s⁻¹
- k el [1, 5]: 1.35e-05 s⁻¹
- half-life [1, 4]: 10.5 ± 2.76 h
- half-life [1, 5]: 14.3 ± 0.87 h
- AUC(0-inf) (in vivo; 1 mg/kg): 117 ± 32.5 ng·h/mL
- AUC(0-t) (in vivo; 1 mg/kg): 89.7 ± 35.6 ng·h/mL
- Vd (in vivo; 1 mg/kg, VdSS): 97.1 ± 19.5 L/kg
- MRTIV ([2]; BALB/c mice, doxorubicin I.V. 2.00 mg/kg alone): 14.6 ± 5.71 h
- MRTIV ([2]; BALB/c mice, doxorubicin I.V. 2.00 mg/kg combined with NSC23925b 2.50 mg/kg): 17.3 ± 4.17 h
- AUMC0-inf [2, 6]: 4157 ± 2493 h·h·ng·mL^−1
- AUMC0-t [2, 6]: 1470 ± 309 h·h·ng·mL^−1
- AUC(0-inf) [2, 6]: 272 ± 53.7 ng·h/mL
- AUC(0-t) [2, 6]: 207 ± 9.76 ng·h/mL
- Vd [2, 6]: 105 ± 19.8 L/kg
- clearance [2, 7]: 126 ± 22.4 mL/min/kg
- clearance [2, 8]: 155 ± 19.2 mL/min/kg
- k el [2, 7]: 1.89e-05 s⁻¹
- k el [2, 8]: 1.52e-05 s⁻¹
- half-life ([2]; male, BALB/c, mouse, plasma, iv, 2 mg/kg, t1/2, BALB/c mice, doxorubicin I.V. 2.00 mg/kg alone): 10.7 ± 3.29 h
- half-life ([2]; male, BALB/c, mouse, plasma, iv, 2 mg/kg, t1/2, BALB/c mice, doxorubicin I.V. 2.00 mg/kg combined with NSC23925b 2.50 mg/kg): 12.8 ± 1.91 h
- AUMC0-t ([3]; 1 mg/kg): 446 ± 282 h·h·ng·mL^−1

SMILES: COc1ccc2[nH]c([S+]([O-])Cc3ncc(C)c(OC)c3C)nc2c1 (centres unmarked) [Omeprazole, reference compound]
- IC50 (CYP2C19): 4080 nM

SMILES: CC(=O)O[C@H]1C(=O)[C@@]2(C)[C@H]([C@H](OC(=O)c3ccccc3)[C@]3(O)C[C@H](OC(=O)[C@H](O)[C@@H](NC(=O)c4ccccc4)c4ccccc4)C(C)=C1C3(C)C)[C@]1(OC(C)=O)CO[C@@H]1C[C@@H]2O [Paclitaxel, reference compound]
- AUC(0-inf) (in vivo; 5 mg/kg): 4610 ± 517 ng·h/mL
- AUC(0-t) (in vivo; 5 mg/kg): 4200 ± 492 ng·h/mL
- clearance (in vivo; 5 mg/kg, CL): 18.2 ± 1.93 mL/min/kg
- AUMC0-inf [2, 9]: 2911 ± 400 h·h·ng·mL^−1
- AUMC0-t [2, 9]: 2728 ± 356 h·h·ng·mL^−1
- MRTIV [2, 9]: 1.16 ± 0.147 h
- AUC(0-inf) [2, 9]: 2520 ± 244 ng·h/mL
- AUC(0-t) [2, 9]: 2500 ± 238 ng·h/mL
- clearance [2, 9]: 33.2 ± 3.12 mL/min/kg
- k el [2, 9]: 0.000149 s⁻¹
- Vd [2, 9]: 2.31 ± 0.428 L/kg
- half-life ([2]; male, BALB/c, mouse, in vivo, iv, 5 mg/kg, t1/2): 1.33 ± 0.28 h
- AUMC0-inf ([3]; 5 mg/kg): 29892 ± 4245 h·h·ng·mL^−1
- AUMC0-t ([3]; 5 mg/kg): 13231 ± 1265 h·h·ng·mL^−1
- Kel ([3]; 5 mg/kg): 0.0602 ± 0.0042 h⁻¹
- MRTIV ([3]; 5 mg/kg): 6.50 ± 0.853 h
- VdSS ([3]; 5 mg/kg): 7.13 ± 1.34 L/kg

From article PMC4860631, “Pharmacokinetics and tolerability of NSC23925b, a novel P-glycoprotein inhibitor: preclinical study in mice and rats” (Scientific Reports, 2016)
